Data published in patent publication US4570013A, “Biphenylylalkanoic acid derivatives, methods of preparation and pharmaceutical compositions therefrom” (Dr. L. Zambeletti S.p.A., priority 1983, dated 1986).
Like-named read-outs stand apart in the source and are kept apart here.

Assays:
[1] = tested on: writhings caused by 2-phenylparabenzoquinone in mice; assay: writhing test (method of Siegmund), 2-phenylparabenzoquinone, analgesic activity; assay type: in vivo, Swiss mice; details: for Contorsions % (change vs controls) / No. Contorsions: orally at ED50: biphenylylacetic acid 12, Ia 32 mg/kg
Source text: The analgesic activity has been studied according to the method described by Siegmund (E. Siegmund et al, Proc. Soc. Exptl. Biol. Med., 95, 729 (1957)), according to which the algogenic stimulus consists of the intraperitoneal injection of 2-phenylparabenzoquinone and the algesia manifests itself in repeated abdominal contractions with an extension of the rear limbs and contorsions of the body ("writhing test").

[2] = tested on: oedema induced in the rats' paw by intradermic injection of carrageenin; assay: carrageenin-induced paw oedema (method of Winter), antiinflammatory activity; assay type: in vivo; details: Rattus norvegicus, po, orally, read-out: effective dose ED50, antiedemigenic (antiinflammatory) activity
[3] = tested on: protective activity in the hot plate test; assay: hot plate test, central analgesic activity; assay type: in vivo; details: up to 200 mg/kg^-1 orally, mice
in vivo = details: rat, po
[4] = tested on: aggregating action of arachidonic acid; assay: ex vivo study of aggregating action of arachidonic acid after oral administration; assay type: in vivo; details: guinea pigs, oral dose equal to antiinflammatory ED50
[5] = tested on: Salmonella thyphimurium TA 1535; TA 1538; TA 100; TA 98; assay: Ames test, mutagenic action; assay type: cell-based; details: with and without metabolic activation, up to 5000 μg per plate
[6] = gastrolesive action after single doses; details: rat, in vivo
[7] = tested on: platelet aggregation induced by arachidonic acid; assay: platelet aggregation induced by arachidonic acid in vitro (method of Born); assay type: cell-based, guinea pigs; details: guinea pig platelet-enriched plasma
Experimental: The activity of compound Ia on the metabolism of arachidonic acid has been studied in virto according to the method described by B. Fjalland, J. Pharm. Pharmacol., 26, 448 (1974). In these tests the compound being examined is capable of inhibiting the synthesis of prostaglandin and thromboxane caused by arachidonic acid (AA) incubated with lung tissue of guinea pigs (IC50 =0.05 mM). The activity on the platelet aggregation induced by arachidonic acid has been determined in vitro on plasma enriched with platelets of guinea pigs according to the method described by G. V. R. Born, Nature 194, 927 (1962).

[8] = tested on: Hyperthermia caused by brewer's yeast in rats; assay: brewer's yeast hyperthermia (method of C. Winter), antipyretic activity; assay type: in vivo
Source text: The antipyretic activity has been studied according to the method of C. Winter, Toxicol. and Appl. Pharmacol., 5, 247 (1963), in rats, by determining the ability of the substance to reduce the increase of body temperature caused by the subcutaneous administration of brewer's yeast.

acute toxicity (DL50) = details: mouse, in vivo
Source text: Finally, the following values of DL50 have been determined in mice for compound Ia: […]

## COc1ccccc1OCC(O)COC(=O)Cc1ccc(-c2ccccc2)cc1 (centres unmarked) [Compound Ia, 1-Biphenylylacetoxy-3-(2-methoxyphenoxy)-propan-2-ol]
[1]; 32 mg/kg orally, mice
  onset of analgesic activity after administration: 15 min
[1]; 5 minutes
  Contorsions % (change vs controls): -28%
  No. Contorsions: 33.1 ± 4.1
[1]; 15 minutes
  Contorsions % (change vs controls): -33%
  No. Contorsions: 35.1 ± 3.4
[1]; 30 minutes
  Contorsions % (change vs controls): -54%
  No. Contorsions: 22.7 ± 2.4
[1]; 1 hour
  Contorsions % (change vs controls): -47%
  No. Contorsions: 26.8 ± 3.3
[1]; 2 hours
  Contorsions % (change vs controls): -46%
  No. Contorsions: 25.4 ± 3.8
[1]; 3 hours
  Contorsions % (change vs controls): -44%
  No. Contorsions: 27.6 ± 3.4
[1]; 4 hours
  Contorsions % (change vs controls): -31%
  No. Contorsions: 33.5 ± 3.6
[1]; 5 hours
  Contorsions % (change vs controls): -1%
  No. Contorsions: 45.0 ± 3.2
[1]; Mus musculus, po, mice, orally, read-out: ED50, analgesic activity (writhing test)
  ED50: 32 mg/kg
[2]
  ED50: 22.5 mg/kg
[3]
  protective activity in the hot plate test (central analgesic activity): has not shown any protective activity
In vivo
  TD50: 61.7 mg/kg
[4]
  duration of decrease in aggregating action of arachidonic acid: remains up to the fifth hour
  start of decrease in aggregating action of arachidonic acid after administration: starts three hours after the administration
[5]
  mutagenic action (Ames test): has not shown any mutagenic action
[6]
  selectivity ratio: 2 to 4
[7]; Cavia porcellus, read-out: IC50, anti aggregating activity
  IC50: 123 µM
[7]
  anti aggregating activity, concentration dependence: proportional to the concentration used
[8]; 6 mg/kg os, 1 h
  Temperature after administration of the substance, t: 38.01±0.07 °C
  Temperature change Δt after administration of the substance: -0.63 °C
[8]; 6 mg/kg os, 2 h
  Temperature after administration of the substance, t: 37.71±0.09 °C
  Temperature change Δt after administration of the substance: -0.75 °C
[8]; 6 mg/kg os, 3 h
  P/S, ratio of protected animals with respect to total screened animals: 1/10
  Temperature after administration of the substance, t: 37.70 °C
  Temperature change Δt after administration of the substance: -0.69 °C
[8]; 6 mg/kg os, 4 h
  Temperature after administration of the substance, t: 37.85±0.14 °C
  Temperature change Δt after administration of the substance: -0.45 °C
[8]; 6 mg/kg os, 5 h
  Temperature after administration of the substance, t: 38.07±0.15 °C
  Temperature change Δt after administration of the substance: -0.19 °C
[8]; 6 mg/kg os, 6 h
  Temperature after administration of the substance, t: 38.10 °C
  Temperature change Δt after administration of the substance: -0.14 °C
[8]; 12 mg/kg os, 1 h
  Temperature after administration of the substance, t: 37.81±0.06 °C
  Temperature change Δt after administration of the substance: -0.83 °C
[8]; 12 mg/kg os, 2 h
  Temperature after administration of the substance, t: 37.40±0.05 °C
  Temperature change Δt after administration of the substance: -1.06 °C
[8]; 12 mg/kg os, 3 h
  P/S, ratio of protected animals with respect to total screened animals: 4/10
  Temperature after administration of the substance, t: 37.32±0.08 °C
  Temperature change Δt after administration of the substance: -1.07 °C
[8]; 12 mg/kg os, 4 h
  Temperature after administration of the substance, t: 37.41±0.07 °C
  Temperature change Δt after administration of the substance: -0.89 °C
[8]; 12 mg/kg os, 5 h
  Temperature after administration of the substance, t: 37.66±0.09 °C
  Temperature change Δt after administration of the substance: -0.50 °C
[8]; 12 mg/kg os, 6 h
  Temperature after administration of the substance, t: 37.88±0.07 °C
  Temperature change Δt after administration of the substance: -0.36 °C
[8]; 24 mg/kg os, 1 h
  Temperature after administration of the substance, t: 37.66±0.05 °C
  Temperature change Δt after administration of the substance: -0.98 °C
[8]; 24 mg/kg os, 2 h
  Temperature after administration of the substance, t: 37.31±0.05 °C
  Temperature change Δt after administration of the substance: -1.15 °C
[8]; 24 mg/kg os, 3 h
  P/S, ratio of protected animals with respect to total screened animals: 8/10
  Temperature after administration of the substance, t: 37.13±0.06 °C
  Temperature change Δt after administration of the substance: -1.26 °C
[8]; 24 mg/kg os, 4 h
  Temperature after administration of the substance, t: 37.16±0.06 °C
  Temperature change Δt after administration of the substance: -1.14 °C
[8]; 24 mg/kg os, 5 h
  Temperature after administration of the substance, t: 37.34±0.05 °C
  Temperature change Δt after administration of the substance: -0.92 °C
[8]; 24 mg/kg os, 6 h
  Temperature after administration of the substance, t: 37.55±0.06 °C
  Temperature change Δt after administration of the substance: -0.69 °C
[8]; Rattus norvegicus, po, rats, orally, read-out: ED50, antipyretic activity
  ED50: 14 mg/kg
[8]; rats, orally
  duration of antipyretic activity: continues after the sixth hour
  onset of antipyretic activity after the treatment: within one hour after the treatment
Acute toxicity (DL50); ip, read-out: DL50 ip
  LD50: 260 mg/kg
Acute toxicity (DL50); po, read-out: DL50 orally
  LD50: 3330 mg/kg
